Where “and” joins values, the source holds several entries; their conditions need not be identical. Equal values may be shown once.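 Each compound was tested at five concentrations against cells in 96-well plates for 48 hours. The concentration for 50% growth inhibition is given as GI50. TGI: concentration producing complete growth inhibition.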
How the values were obtained:
Experiment in all cases: NCI-60 cell line screen, 48 h
[1] = test system: A549 NSCLC
[2] = test system: CAKI-1 renal
[3] = test system: CCRF-CEM leukemia
[4] = test system: EKVX NSCLC
[5] = test system: MOLT-4 leukemia
[6] = test system: OVCAR-8 ovarian
[7] = test system: RPMI-8226 leukemia
[8] = test system: SK-OV-3 ovarian
[9] = test system: SW-620 colon
[10] = test system: UACC-257 melanoma

| SMILES | TGI [1] | TGI [2] [µM] | TGI [3] [µM] | TGI [4] | TGI [5] | TGI [6] [µM] | TGI [7] [µM] | TGI [8] | TGI [9] | TGI [10] | GI50 [2] [µM] | GI50 [3] | GI50 [4] | GI50 [5] | GI50 [6] [µM] | GI50 [7] [µM] | GI50 [8] | GI50 [9] | GI50 [10] | GI50 [1] [µM] |
| --- | --- | --- | --- | --- | --- | --- | --- | --- | --- | --- | --- | --- | --- | --- | --- | --- | --- | --- | --- | --- |
| CCC1(c2ccncc2)CCC(=O)NC1=O (centres undefined) | > 100 µM | > 100 | > 100 | > 100 µM | > 100 µM | > 100 | > 100 | > 100 µM | > 100 µM | > 100 µM |  |  |  |  |  |  |  |  |  |  |
| O=C(CN1C(=O)c2ccccc2C1=O)OC1C=CCCC1 (centres undefined) | > 100 µM | > 100 | > 100 | > 100 µM | > 100 µM | > 100 | > 100 | > 100 µM | > 100 µM | > 100 µM |  |  |  |  |  |  |  |  |  |  |
| CCCCCCCCCCCCCCCC[N+](C)(C)C | 0.417 µM and 3.78 µM | 10.7 | 2.44 | 3.17 µM and 4.28 µM | 0.346 µM and 2.8 µM | 0.536 | 0.792 | 1.35 µM and 6.2 µM | 0.859 µM and 2.97 µM | 0.942 µM and 6.33 µM | 2.05 | 0.656 µM | 0.577 µM and 1.59 µM | 0.157 µM and 1.17 µM | 0.212 | 0.142 | 0.314 µM and 2.12 µM | 0.239 µM and 1.31 µM | 0.266 µM and 2.46 µM |  |
| O=c1cc(-c2ccccc2)oc2cc(OCc3cn(Cc4ccc(F)cc4)nn3)cc(O)c12 | > 100 µM | > 100 | > 100 | > 100 µM | > 100 µM | > 100 | > 100 | > 100 µM | > 100 µM | > 100 µM | 5.76 | > 100 µM | 63.8 µM | > 100 µM | 3.76 | > 100 | 6.57 µM | > 100 µM | > 100 µM | 19.6 |
| Cc1cc2cc(Oc3ccnc(Nc4cccc(CS(=O)(=O)NCCN(C)C)c4)n3)ccc2[nH]1 | 25.5 µM | 16.6 | 11.3 | 26.7 µM | 7.06 µM | 36.1 | 11.5 | 29.5 µM | 23.5 µM | 4.79 µM | 3.31 | 3.36 µM | 12.2 µM | 2.1 µM | 15.8 | 2.99 | 14.4 µM | 7.99 µM | 2.33 µM | 12 |
| CC(C)NCCCNC1=C(Cl)C(=O)c2ccccc2C1=O | 33.5 µM | 20.9 | 17.6 | 2.83 µM | 4.61 µM | 5.1 | 19.2 | 29.4 µM | 3.37 µM | 3.63 µM | 5.83 | 3.56 µM | 1.4 µM | 2.05 µM | 2.13 | 3.48 | 15.8 µM | 1.74 µM | 1.91 µM | 11.2 |
| COc1ccccc1NC(=O)N/C(N)=N/c1nc2ccccc2s1 | > 100 µM | > 100 | > 100 | > 100 µM | > 100 µM | > 100 | > 72.4 | > 100 µM | > 100 µM | > 100 µM | 0.062 | 0.111 µM | 0.409 µM | 0.162 µM | 0.262 | 0.163 | 0.476 µM | 0.0531 µM |  | 0.107 |
| Cc1ccc(S(=O)(=O)NC(C)C(=O)O)cc1 (centres undefined) | > 100 µM | > 100 | > 100 | > 100 µM | > 100 µM | > 100 | > 100 | > 100 µM | > 100 µM | > 100 µM |  | 47.2 µM and > 100 µM |  |  |  |  |  |  |  |  |
| O=C(O)c1cc2c3c(c1)[C@H]1C=CC[C@H]1CN3CC1CC=CC21 (some centres undefined) | > 100 µM | > 100 | > 100 | > 100 µM | > 100 µM | > 100 | > 100 | > 100 µM | > 100 µM | > 100 µM |  |  |  |  |  |  |  |  |  |  |
| C#Cc1cccc(N2C(=O)CC(=P(c3ccccc3)(c3ccccc3)c3ccccc3)C2=O)c1 | > 100 µM | > 100 | > 100 | > 100 µM | > 100 µM | > 100 | 63.2 | > 100 µM | > 100 µM | > 100 µM |  |  |  |  |  |  |  |  |  |  |
| COc1ncnc2c1ncn2C/C(Br)=C(\Br)CCl | 25.9 µM | 3.87 | 13.5 | 29.9 µM | 25.4 µM | 7.84 | 16.4 | 28 µM |  | 3.9 µM | 1.87 | 2.73 µM | 16.3 µM | 2.91 µM | 3.01 | 3.19 | 14.8 µM |  | 0.775 µM | 10.8 |
| COc1cc(C)c(N(C)C(=O)CN(C)C)cc1Nc1nc(Nc2cccc(F)c2C(N)=O)c2cc[nH]c2n1 | > 25 µM | > 25 | > 25 | > 25 µM | > 25 µM | > 25 | > 25 | > 25 µM | > 25 µM | > 25 µM | > 23.9 | > 19.3 µM | > 25 µM | > 21.9 µM | > 25 | > 22 | > 25 µM | > 22.4 µM | > 15.1 µM | > 25 |
| COc1cc2c3c(n(CCCn4cccn4)c(=O)c2cc1OC)-c1cc2c(cc1C3=O)OCO2 | > 100 µM |  | 2.34 | > 53.1 µM | > 35.9 µM | 54.7 | 22.4 | > 100 µM | > 100 µM | > 100 µM | 0.577 | 0.341 µM | 8.79 µM | 0.351 µM | 2.83 | 2.44 | 4.13 µM | 1.39 µM | 9.92 µM | 2.87 |
| O=C(O)C1(C(=O)O)CCN(S(=O)(=O)c2ccccc2)CC1 | > 100 µM | > 100 | > 100 | > 100 µM | > 100 µM | > 100 | > 100 | > 100 µM | > 100 µM | > 100 µM |  |  |  |  |  |  |  |  |  |  |
| CCOc1ccc2c(-c3ccnc(Nc4cccc(C(F)(F)F)c4)n3)cnn2n1 | 9.19 µM | > 25 | > 25 | > 25 µM | > 25 µM | 11.7 | > 25 | 18.9 µM | > 25 µM | > 25 µM | > 14.7 | > 25 µM | > 17.9 µM | > 25 µM | 5.44 | > 25 | 8.11 µM | > 25 µM | > 25 µM | 4.4 |
| COc1ccc(-n2nc(C)c3c(Nc4ccc(NC(=O)Nc5cc(C(F)(F)F)ccc5F)cc4)ncnc32)cc1 | 5.86 µM | 6.87 | > 100 | 5.88 µM | 12.1 µM | 6.16 | 5.88 | 82.3 µM | 22.6 µM | 4.42 µM | 2.01 | 2.94 µM | 2.25 µM | 2.69 µM | 2.36 | 2.26 | 3.48 µM | 3.45 µM | 1.99 µM | 2.35 |
| CC(C)(C)OC(=O)N(CCCn1c2c(c3ccccc3c1=O)C(=O)c1ccccc1-2)CCN(CCCn1c2c(c3ccccc3c1=O)C(=O)c1ccccc1-2)C(=O)OC(C)(C)C | > 50 µM | > 50 | > 50 | > 50 µM | 16.1 µM | > 50 | > 50 | > 50 µM | > 50 µM | > 50 µM | 37.9 | 4.93 µM | > 50 µM | 4 µM | 24.6 | 12.1 | > 50 µM | 49.1 µM | > 50 µM | 25.4 |
| O=C(Oc1ccccc1Cl)c1cccnc1Nc1ccnc(C(F)(F)F)c1 | > 100 µM | 50 | 6.52 | 84.3 µM | 8.97 µM | 47 | 36.7 | > 100 µM | 22.3 µM | 63.5 µM | 23.1 | 2.4 µM | 32.6 µM | 2.52 µM | 14.7 | 12.4 | 36.9 µM | 3.72 µM | 21.4 µM | 30.2 |
| C/C(=C\c1ccccc1)C(O)S(=O)(=O)O (centres undefined) | > 100 µM | > 100 | > 100 | > 100 µM | > 100 µM | > 100 | > 100 | > 100 µM | > 100 µM | > 100 µM |  |  |  |  |  |  |  |  |  |  |
| CCCCCCCCOC(=O)c1cc(O)c(O)c(O)c1 | 49 µM | 3.52 | > 42.8 | 22.4 µM | 16.5 µM | 37.5 | > 100 | 28 µM | 19.4 µM | 45.4 µM | 0.644 | 0.314 µM | 4.65 µM | 0.437 µM | 3.14 | 0.511 | 7.28 µM | 2.87 µM | 6.4 µM | 12.7 |
| O=C(/C=C/c1ccccc1)c1ccc(O)c(CN2CCN(c3cc4c(cc3F)c(=O)c(C(=O)O)cn4C3CC3)CC2)c1 | > 100 µM | > 100 | > 100 | > 100 µM |  | > 100 | 6.37 | > 100 µM | > 100 µM | > 100 µM | 2.42 | 0.598 µM | 3.66 µM |  | 0.592 | 0.275 | 2.77 µM | 2.28 µM | 1.91 µM | 3.17 |
